IC50 and EC50 data for one molecule are collected here from patent US20240400583A1, “TRICYCLIC SULFAMIDES AND SULTAMS” (Merck Sharp & Dohme LLC, priority 2021, published 2024).

Bounds are passed on as bounds.

The target in one experiment is T1, DCAF15 (Homo sapiens, UniProt Q66K64, DEL276-383).
T1 construct: made in house; host or cells: Sf9 (baculovirus, Bac-to-Bac)
As to the kind of experiment: DCAF15 Displacement Assay (displacement of probe PT7795, FRET). It is filed as binding. To be noted: competition with 300 nM PT7795 on DDA1-DDB1ΔB-DCAF15Δpro triplex, 18 hours incubation, FRET 665/615. The source says:
(§1) Proteins used for the assays were as follows: Human DDA1 (UniProt:Q9BW61), DDB1 (UniPro:Q16531), and DCAF15 (UniProt:Q66K64) coding sequences were cloned into pFastBac1 vectors and were co-expressed in Sf9 cells using Bac-to-Bac baculovirus expression system (Thermo Fisher Scientific). The expression construct for DCAF15 includes a N-terminal His6-tag to facilitate the purification. The atrophin-1 homology region of DCAF15 (amino acid residues 276-383) was excised (Apro, originally to facilitate crystallization). Triplex of DDA1-DDB1ΔB-DCAF15Apro, which has the BPB domain (aa 396 to 705) excised and replaced with a GNGNSG linker, was used in all the kinetic measurements because of the higher yield. R^1R^2 of RBM39 (aa 150 to 331; UniProt: Q14498) contained a C-terminal FLAG tag used in the DCAF15/RBM39 complex formation assay. DCAF15 Displacement Assay (Displacement FRET KD)
The previously described procedure was followed (See X. Du, et al., “Structural Basis and Kinetic Pathway of RBM39 Recruitment to DCAF15 by a Sulfonamide Molecular Glue E7820”, Structure, 27, 1625-1633.e3, 2019). Synthesis of the probe PT7795 is described in the article.
Binding of PT7795 to DDA1-DDB1ΔB-DCAF15Apro was measured by the FRET signal between europium-labeled anti-His antibody (AD0205, Perkin Elmer) that is associated with His-tagged DCAF15 and ALX647 moiety in PT7795. The concentration of PT7795 was varied from 2.3 nM to 1000 nM in 16 wells, each containing 25 mM HEPES pH7.5, 100 mM NaCl, 0.1 mg/ml BSA, 0.005% Tween 20, 0.5 mM TCEP, 4% DMSO, 0.5 nM europium-labeled anti-His antibody, and 10 nM triplex of DDA1-DDB1 DB-DCAF15 Apro. After equilibrating for 2-3 hours at 4° C., the plate was removed from the incubator, briefly spun, then read on a Spark 10 (Tecan) at the excitation/emission wavelength of 340 nm/615 nm and 340 nm/665 nm. To obtain Kd, the ratio of 665/615 readings was fitted to Equation 1, where F stands for the ratio of 665/615 […].
Binding of compounds in this disclosure to DCAF15 was measured in a competition by the displacement of PT7795. The concentration of PT7795 was kept at 300 nM while the concentration of a compound was varied from 0.01 to 100 μM. The incubation time was increased to 18 hours for enhanced signal to noise level. To obtain IC50, the ratio of 665/615 readings was fitted to Equation 2, where n is Hill slope.

Experiment [1] concerns the target T2, DCAF15 RBM39 ternary complex (Homo sapiens, UniProt Q14498+Q66K64, DEL276-383).
T2 construct: RBM39 (aa 150 to 331; UniProt: Q14498); TEV cleavage site (pGEX4T3 vector); made in house; host or cells: Sf9 (baculovirus) for the triplex; E. coli for the RBM39 fragment according to b294
The experiment in a line: DCAF15 RBM39 Ternary Complex Formation Assay. It is filed as binding. To be noted: apparent EC50 for compound-induced complex formation, 10 nM DCAF15 triplex, 50 nM RBM39 R1R2, FRET 665/615.
Excerpt: as §1
His-tagged DDA1-DDB1ΔB-DCAFISΔpro triplex and RIR2 with a C-terminal FLAG were used in the assay and compound-induced complex formation was monitored through resonance transfer between europium-labeled anti-His antibody and APC-labeled anti-FLAG antibody (AD0059F, Perkin Elmer).

`COC(=O)CCCc1[nH]c2c3c(cc(Cl)c2c1Cl)CN(Cc1ccnc(O)c1)S(=O)(=O)N3` [Compound 24, methyl 4-(6,7-dichloro-3-((2-hydroxypyridin-4-yl)methyl)-2,2-dioxido-1,3,4,9-tetrahydro-[1,2,6]thiadiazino[4,3-g]indol-8-yl)butanoate] registered an IC50 at DCAF15 of 317 nM. In experiment [1], the EC50 was greater than 25000 nM.
